Data taken from PMC3115046, “Analyzing Airway Inflammation with Chemical Biology: Dissection of Acidic Mammalian Chitinase Function with a Selective Drug-like Inhibitor” (Chemistry & Biology, 2011).

What was measured:
human AMCase (hAMCase) = target: T1, human AMCase (hAMCase) (Homo sapiens, UniProt Q9BZP6); experiment: Chitinase activity assay with fluorescent 4-MU substrate, hAMCase; format: biochemical
T1 construct: A fragment corresponding to hAMCase 22-398 (bp 64–1194) was ligated into the pPIC9 vector; made in house; host or cells: Pichia pastoris GS115
Protocol: A fragment corresponding to hAMCase 22-398 (bp 64–1194) was ligated into the pPIC9 vector (Invitrogen) using the Xho I and Not I restriction sites. The enzyme was subsequently overexpressed as a secreted protein from the Pichia pastoris GS115 strain and purified using a combination of affinity chromatography and size-exclusion chromatography. Pure hAMCase was spin concentrated to 37 mg/ml in 25 mM HEPES (pH 6.8), 250 mM NaCl. The protein was crystallized at 30°C from 75% saturated NaCl, 0.1 M HEPES (pH 7.4) using the hanging drop method. Crystals grew to an approximate size of 200 × 100 × 50 μm. Crystals were cryoprotected in 50% saturated NaCl, 20% glycerol in 0.1 M HEPES (pH 7.4) and subsequently flash frozen in liquid nitrogen. […] Data for hAMCase were collected at ID14-EH1 at the European Synchrotron Radiation Facilities (ESRF) using a cryostream of cold nitrogen (110 K). […]
Chitinase activity of hAMCase, lung homogenates, or AMCase COS-7 cell supernatants (serum-free) were determined using 4-methylumbelliferyl-β-D-N,N′,N″-triacetylchitotrioside and 4-methylumbelliferyl-β-D-N,N′,N″-triacetylchitobioside, as described. […] Liberated 4-methlyumberlliferone was quantified using a microplate fluorometer (excitation 360 nm/emission 440 nm). Ki and IC50 values were determined in the presence of different concentrations of inhibitor. […]

[1] = system: inflammatory cell recruitment in bronchoalveolar lavage; experiment: Bronchoalveolar lavage cell counts, OVA allergic inflammation model; format: in vivo, BALB/c mice
Protocol: All experiments used female BALB/c mice, 6- to 8-weeks-old. Mice were kept in individually ventilated cages and all experiments were conducted under UK Home Office guidelines. Mice were sensitized (day 0) and boosted (day 14) i.p. with 20 μg OVA (Grade V, Sigma) adsorbed to 9% potassium alum. Mice were either challenged on day 28 and 30 with 50 μg OVA or PBS by the intratracheal route or were challenged with 1% OVA or PBS by aerosol for 30 min on day 28 to day 30. […] Necropsies were performed 24 hr after the final airway challenge. […] Total cell numbers were counted and cytospins prepared for differential cell counts, which were assessed by morphology following Diff Quick staining ([…]). BALF was centrifuged at 1200 × g and supernatant stored at -20°C for further analysis.

[2] = system: ventilatory function (penH); experiment: Ventilatory function (penH) after methacholine, whole-body plethysmography; format: in vivo, BALB/c mice
Protocol: All experiments used female BALB/c mice, 6- to 8-weeks-old. Mice were kept in individually ventilated cages and all experiments were conducted under UK Home Office guidelines. Mice were sensitized (day 0) and boosted (day 14) i.p. with 20 μg OVA (Grade V, Sigma) adsorbed to 9% potassium alum. Mice were either challenged on day 28 and 30 with 50 μg OVA or PBS by the intratracheal route or were challenged with 1% OVA or PBS by aerosol for 30 min on day 28 to day 30. […] Necropsies were performed 24 hr after the final airway challenge. […] Briefly, conscious mice were placed in individual chambers for a 10 min acclimatization period. Spontaneous breathing patterns in mice relate to changes in chamber air pressure, which are measured by a transducer attached to the chamber wall. Differences in the rates of pressure change during peak inspiration and peak expiration and the timing of expiration are used to calculate penH according to the following equation; penH = ((expiratory time/relaxation time) – 1) × (peak expiratory flow (mL/s)/peak inspiratory flow (ml/s)). PenH measurements are not used as a quantitative measurement that relates to airway size and rather reflect changes to ventilation following bronchoconstriction. Baseline measurements of penH were made following an aerosol of PBS. […]

[3] = 5 mg/kg i.p., OVA-challenged mice

T1 sequence (Q9BZP6 22-398): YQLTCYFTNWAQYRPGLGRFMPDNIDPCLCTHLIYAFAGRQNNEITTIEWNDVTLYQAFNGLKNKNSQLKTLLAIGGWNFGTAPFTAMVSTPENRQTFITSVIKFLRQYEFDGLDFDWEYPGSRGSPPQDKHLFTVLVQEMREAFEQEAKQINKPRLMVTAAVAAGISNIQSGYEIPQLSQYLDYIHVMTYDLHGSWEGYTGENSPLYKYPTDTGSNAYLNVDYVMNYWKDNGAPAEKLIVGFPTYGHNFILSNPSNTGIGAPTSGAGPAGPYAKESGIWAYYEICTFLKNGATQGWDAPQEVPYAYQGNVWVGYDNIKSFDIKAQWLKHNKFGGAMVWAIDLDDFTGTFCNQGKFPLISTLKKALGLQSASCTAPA

Cn1cnc2c1c(=O)n(CCCn1c(=O)c3[nH]cnc3n(C)c1=O)c(=O)n2C [bisdionin F]
IC50 (human AMCase (hAMCase); 4-MU substrate, pH 5.2, 10 min 37°C, read-out: IC50 against hAMCase): 920 ± 40 nM | selectivity for AMCase over CHIT1 (human AMCase (hAMCase); hAMCase vs hCHIT1): 20 fold | increase in neutrophil cell number in BALF vs vehicle-treated OVA-challenged mice ([1]; 5 mg/kg i.p.): 4 fold | number of eosinophils in BALF [1, 3]: reduction | number of lymphocytes in BALF [1, 3]: reduction | total cell airway infiltrates (BALF) ([1]; 5 mg/kg i.p., OVA-challenged mice, vs vehicle, p < 0.01): significantly reduced | total cell numbers (BALF) in PBS-challenged animals ([1]; 5 mg/kg i.p., PBS-challenged mice): not altered | eosinophilia of OVA-challenged mice ([1]; 1 and 5 mg/kg i.p.): reduced | increase in neutrophil cell number in BALF ([1]; 1 and 5 mg/kg i.p., OVA-challenged mice): 2- to 4 fold | reduction of eosinophil recruitment ([1]; doses that decreased penH in allergic animals): approximately 50% | penH in PBS-challenged animals ([2]; 5 mg/kg, data not shown): no effect | penH in allergic mice ([2]; 1 and 5 mg/kg i.p., highest concentration of methacholine): significantly reduced
